Test results from ChEMBL document CHEMBL5257121, “Discovery of arylsulfonamides as a novel class of allosteric integrase inhibitors with antiviral activity” (Bioorg Med Chem Lett, 2023).
pIC50: −log10 of the molar value.

Assays:
[1] = system: Human immunodeficiency virus 1; assay: Selectivity ratio of IC50 for antiviral activity against early stage HIV-1 to IC50 for antiviral activity against late stage HIV-1; assay type: functional
[2] = Allosteric inhibition of LEDGF binding to HIV integrase by InLEAD assay; design: species or system Human immunodeficiency virus
[3] = system: Human immunodeficiency virus 1; assay: Antiviral activity against early stage HIV-1 assessed as disruption of proviral integration; assay type: functional, organism-based
[4] = system: Human immunodeficiency virus 1; assay: Antiviral activity against HIV-1; assay type: functional, organism-based
[5] = system: Human immunodeficiency virus 1; assay: Antiviral activity against late stage HIV-1 assessed as inhibition of viral replication; assay type: functional, organism-based

SMILES | Ratio IC50 [1] | pIC50 [2] | pIC50 [3] | pIC50 [4] | pIC50 [5]
COc1ccc(NC(=O)c2cncc(-c3ccccc3S(=O)(=O)NC(C)(C)C)c2)cc1 | 5.4 | 5.89 | 4.56 | 5.10 | 5.29
COc1ccc(NC(=O)c2cncc(-c3ccc(C)cc3S(=O)(=O)NC(C)(C)C)c2)cc1 | – | < 4.17 | – | 4.97 | –
COc1ccc(NC(=O)c2cncc(-c3cccc(C)c3S(=O)(=O)NC(C)(C)C)c2)cc1 | – | < 4.17 | – | 4.79 | –
COC(=O)C(Cc1ccccc1)NC(=O)CCc1ccc(NC(=O)c2cncc(-c3ccccc3S(=O)(=O)NC(C)(C)C)c2)cc1 (stereo not drawn) | – | 5.49 | – | 5.52 | –
COc1ccc(NC(=O)c2cncc(-c3c(C)cccc3S(=O)(=O)NC(C)(C)C)c2)cc1 | 9.3 | 5.89 | 4.60 | 5.85 | 5.57
COc1ccc(NC(=O)c2cncc(-c3cc(C)ccc3S(=O)(=O)NC(C)(C)C)c2)cc1 | – | 5.05 | – | 4.81 | –
CC(C)(C)NS(=O)(=O)c1ccccc1-c1cncc(C(=O)Nc2ccc(CCC(=O)O)cc2)c1 | – | 5.89 | – | 5.03 | –
COc1ccc(NC(=O)c2cc(-c3ccccc3S(=O)(=O)NC(C)(C)C)ccn2)cc1 | – | 5.42 | – | 5.20 | –
COc1ccc(NC(=O)c2cc(-c3ccccc3S(=O)(=O)NC(C)(C)C)ccc2F)cc1 | – | 5.55 | – | 5.03 | –
Cc1ccc(NC(=O)c2cccc(-c3ccccc3S(=O)(=O)NC(C)(C)C)c2)c(C)c1 | – | 5.98 | – | 5.29 | –
COc1ccc(NC(=O)c2cc(-c3ccccc3S(=O)(=O)NC(C)(C)C)ccc2Cl)cc1 | – | < 4.17 | – | < 4.38 | –
CC(C)(C)NS(=O)(=O)c1ccccc1-c1cccc(C(=O)Nc2ccc(CCC(=O)O)cc2)c1 | >3.6 | 5.43 | < 4.38 | 5.19 | 4.92
COc1ccc(NC(=O)c2cccc(-c3ccccc3S(=O)(=O)NC(C)(C)C)c2)cc1 | – | 5.43 | – | 4.96 | –
COc1ccc(NC(=O)c2cccc(-c3ccccc3S(=O)(=O)NC(C)(C)C)n2)cc1 | – | < 4.47 | – | 4.95 | –
COc1ccc(NC(=O)c2cccc(-c3ccccc3S(=O)(=O)NC3(C)CC3)c2)cc1 | – | 5.22 | – | 5.24 | –
COC(=O)CCc1ccc(NC(=O)c2cccc(-c3ccccc3S(=O)(=O)NC(C)(C)C)c2)cc1 | – | 5.84 | – | 5.31 | –
CCC(C)(C)NS(=O)(=O)c1ccccc1-c1cccc(C(=O)Nc2ccc(OC)cc2)c1 | – | 4.76 | – | 5.14 | –
CC(C)(C)NS(=O)(=O)c1ccccc1-c1cncc(C(=O)Nc2ccc(CCC(=O)NCCNC(=O)c3ccc4c(c3)C(=O)OC43c4ccc(O)cc4Oc4cc(O)ccc43)cc2)c1 | – | 6.43 | – | – | –
COCC1(NS(=O)(=O)c2ccccc2-c2cccc(C(=O)Nc3ccc(OC)cc3)c2)CCCC1 | 2.3 | < 4.17 | 4.79 | 5.29 | 5.15
COc1ccc(NC(=O)c2cccc(-c3ccccc3S(=O)(=O)NC(C)(C)C)c2)c(C)c1 | – | 5.72 | – | 5.30 | –
CC(C)(C)NS(=O)(=O)c1ccccc1-c1cncc(C(=O)Nc2ccc(CCCC(=O)O)cc2)c1 | – | 6.00 | – | 5.10 | –
Cc1ccc(-c2c([C@H](OC(C)(C)C)C(=O)O)c(C)nc3ccccc23)cc1C | 53.9 | 7.43 | 5.78 | – | 7.51
COc1ccc(NC(=O)c2cccc(-c3ccccc3S(=O)(=O)NC3(C)CCC3)c2)cc1 | – | 5.65 | – | 5.24 | –
COc1ccc(NC(=O)c2cccc(-c3ccccc3S(=O)(=O)NC(C)(C)CC(C)(C)C)c2)cc1 | – | < 4.17 | – | 5.54 | –
COc1ccc(NC(=O)c2cccc(-c3ccccc3S(=O)(=O)NC(C)(C)C(C)(C)C)c2)cc1 | – | < 4.65 | – | 4.56 | –
